Source: patent publication US20040204423A1, “Crystalline antifungal polymorph” (priority 1997, published 2004)

Assay: Solid-state stability of polymorph Form I: conversion into other forms under normal storage and stress conditions
Format: physicochemical
Excerpt: The three crystalline polymorphic forms of the compound of formula designated as Form 1, II and III can readily be distinguished from one another by examination of the characteristic x-ray Diffraction patterns (see FIGS. 1-3), the characteristic infrared spectra (see FIGS. 4-6) and the characteristic Differential Scanning Calorimetry ([…]) thermograms (FIGS. 7-9).

Measured: conversion into any other form

CCC([C@H](C)O)n1ncn(-c2ccc(N3CCN(c4ccc(OC[C@@H]5CO[C@@](Cn6cncn6)(c6ccc(F)cc6F)C5)cc4)CC3)cc2)c1=O (single isomer, unassigned; (-)) [Form 1]
did not convert into any other form: normal storage conditions (15′-30° C. and protected from light) | stress condition: 75% relative humidity at 40° C. for 6 weeks | stress condition: 75° C. for 6 weeks | stress condition: 97% relative humidity at ambient temperature for 2 minutes | stress condition: 150° C. for 2 hours
